Measured values from paper PMC5803267, “A small molecule inhibitor of Rheb selectively targets mTORC1 signaling” (Nature Communications, 2018).

Tests used:
[1] = biological target: T1, Rheb-dependent mTORC1 kinase activity (Homo sapiens, UniProt Q15382); assay: Rheb-dependent mTORC1 in vitro kinase assay (Rheb-IVK); format: biochemical
T1 construct: using full-length Rheb and mTORC1 purified from mammalian cells via a Flag-Raptor handle; made in house; host or cells: HA-GST-Rheb: Freestyle 293-F cells transfected with pRK5-HA-GST-Rheb; mTORC1: HEK-293E cells stably expressing FLAG-Raptor
T1 sequence (Q15382 1-181 limits assumed): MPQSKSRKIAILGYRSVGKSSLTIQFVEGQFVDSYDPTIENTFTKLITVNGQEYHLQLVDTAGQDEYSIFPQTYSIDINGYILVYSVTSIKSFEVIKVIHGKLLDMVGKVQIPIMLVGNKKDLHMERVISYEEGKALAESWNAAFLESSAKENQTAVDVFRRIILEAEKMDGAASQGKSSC

[2] = biological target: T2, recombinant human mTOR (Homo sapiens, UniProt P42345); assay: Rheb-independent mTOR in vitro kinase assay (HotSpot, radiometric); format: biochemical; conditions: up to a concentration of 30 µM
T2 construct: GST (N); host or cells: insect cells
T2 sequence (P42345 1360-2549): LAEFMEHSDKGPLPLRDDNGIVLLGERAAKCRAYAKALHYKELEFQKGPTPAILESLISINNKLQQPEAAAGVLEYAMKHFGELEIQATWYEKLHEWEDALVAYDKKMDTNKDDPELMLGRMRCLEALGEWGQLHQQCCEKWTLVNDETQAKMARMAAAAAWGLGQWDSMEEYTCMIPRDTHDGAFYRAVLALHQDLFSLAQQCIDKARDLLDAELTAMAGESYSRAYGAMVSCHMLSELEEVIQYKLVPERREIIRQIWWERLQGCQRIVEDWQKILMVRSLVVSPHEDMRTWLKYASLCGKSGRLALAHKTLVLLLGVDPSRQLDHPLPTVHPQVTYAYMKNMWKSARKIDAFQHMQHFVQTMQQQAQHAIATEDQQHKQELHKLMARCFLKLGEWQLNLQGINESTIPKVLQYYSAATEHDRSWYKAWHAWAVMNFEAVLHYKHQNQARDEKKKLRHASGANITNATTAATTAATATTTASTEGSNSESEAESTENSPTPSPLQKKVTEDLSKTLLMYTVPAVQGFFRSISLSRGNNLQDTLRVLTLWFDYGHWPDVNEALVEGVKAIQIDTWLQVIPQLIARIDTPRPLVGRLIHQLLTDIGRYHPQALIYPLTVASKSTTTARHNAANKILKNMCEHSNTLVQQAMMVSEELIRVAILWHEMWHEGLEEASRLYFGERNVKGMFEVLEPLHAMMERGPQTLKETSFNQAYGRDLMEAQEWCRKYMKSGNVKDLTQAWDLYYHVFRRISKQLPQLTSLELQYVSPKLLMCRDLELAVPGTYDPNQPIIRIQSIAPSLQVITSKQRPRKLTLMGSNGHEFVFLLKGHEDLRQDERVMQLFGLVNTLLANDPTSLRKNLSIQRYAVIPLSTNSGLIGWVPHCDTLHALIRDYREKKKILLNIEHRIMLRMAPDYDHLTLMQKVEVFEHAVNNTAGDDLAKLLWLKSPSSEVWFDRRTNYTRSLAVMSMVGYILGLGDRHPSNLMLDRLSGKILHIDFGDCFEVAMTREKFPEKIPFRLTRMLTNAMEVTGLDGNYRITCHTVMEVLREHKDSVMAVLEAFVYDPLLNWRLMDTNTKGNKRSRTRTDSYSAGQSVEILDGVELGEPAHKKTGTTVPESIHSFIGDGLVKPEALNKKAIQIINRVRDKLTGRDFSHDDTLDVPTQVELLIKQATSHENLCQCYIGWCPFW

[3] = test system: mTORC1 signaling in TRI102 cells; assay: mTORC1 signaling Western blot in TRI102 cells; format: cell-based, human; conditions: replete and serum-starved conditions, 90 min, dose-dependent
Experimental: MCF-7 cells were serum-starved for 16 h and treated with compound for 90 min before cell lysis and Western blot analysis. For insulin-stimulated cells, 100 nM insulin was added 30 min before cell lysis. For EGF-stimulated cells, 100 ng mL^−1 EGF was added 10 min before cell lysis. c Rap1 activity was detected in lysates loaded in vitro with either GDP or GTPγS and treated with NR1 at the indicated concentrations. This was followed by a subsequent pulldown of GST-RalGDS-RBD. Bound Rap1 was detected by Western blot. d Evaluation of NR1 in a LAM patient-derived cell line (TRI102) under replete and serum-starved conditions. For replete conditions, TRI102 cells were treated for 90 min with compound in DMEM + 10% FBS. For serum-starved conditions, TRI102 cells were serum-starved 16 h and then treated for 90 min with compound prior to cell lysis and Western blot analysis. e HEK293 cells co-transfected with the indicated mTOR constructs and HA-GST-S6K1 were starved of amino acids or treated with NR1. To assess mTORC1 activity, an HA IP was performed and Western blots probed for ^T389pS6K1. f Chronic treatment of PC3 cells with NR1 to evaluate the inhibition of mTORC1 (using ^T389pS6K1) versus mTORC2 (using ^S473pAKT). PC3 cells were treated with compound under replete conditions for 24 h prior to cell lysis and Western blot analysis. […]

[4] = test system: S473pAKT (mTORC2) in PC3 cells; assay: Chronic treatment of PC3 cells, S473pAKT Western blot; format: cell-based, human
Experimental: MCF-7 cells were serum-starved for 16 h and treated with compound for 90 min before cell lysis and Western blot analysis. For insulin-stimulated cells, 100 nM insulin was added 30 min before cell lysis. For EGF-stimulated cells, 100 ng mL^−1 EGF was added 10 min before cell lysis. c Rap1 activity was detected in lysates loaded in vitro with either GDP or GTPγS and treated with NR1 at the indicated concentrations. This was followed by a subsequent pulldown of GST-RalGDS-RBD. Bound Rap1 was detected by Western blot. d Evaluation of NR1 in a LAM patient-derived cell line (TRI102) under replete and serum-starved conditions. For replete conditions, TRI102 cells were treated for 90 min with compound in DMEM + 10% FBS. For serum-starved conditions, TRI102 cells were serum-starved 16 h and then treated for 90 min with compound prior to cell lysis and Western blot analysis. e HEK293 cells co-transfected with the indicated mTOR constructs and HA-GST-S6K1 were starved of amino acids or treated with NR1. To assess mTORC1 activity, an HA IP was performed and Western blots probed for ^T389pS6K1. f Chronic treatment of PC3 cells with NR1 to evaluate the inhibition of mTORC1 (using ^T389pS6K1) versus mTORC2 (using ^S473pAKT). PC3 cells were treated with compound under replete conditions for 24 h prior to cell lysis and Western blot analysis.
Accordingly, a hallmark of a selective mTORC1 inhibitor such as NR1 would be the lack of mTORC2 inhibition irrespective of the duration of treatment. PC3 cells are sensitive to mTORC2 inhibition with long-term rapamycin treatment. Indeed, upon treatment with rapamycin for 24 h, both ^T389pS6K1 and ^S473pAKT were lowered, indicating inhibitory effects on both mTORC1 and mTORC2, respectively.
For Western-based signaling assays, cells were treated for either 90 min or 2–24 h as indicated before lysis, normalization, and Western analysis. Cells were lysed in Triton lysis buffer: 1% Triton X-100, 50 mM HEPES pH 7.4, 100 mM NaCl, 2 mM EDTA, 10 mM β-glycerophosphate, 10 mM Na-pyrophosphate, protease inhibitor.

[5] = Aqueous solubility; format: physicochemical; conditions: result in words
[6] = biological target: T3, FLAG-Rheb / myc-mTOR interaction (Homo sapiens, UniProt Q15382); assay: Co-immunoprecipitation of overexpressed FLAG-Rheb and myc-mTOR; format: cell-based; conditions: review-only material
T3 construct: expressed in transfected cells
T3 sequence (Q15382 1-181 limits assumed): as the sequence (Q15382 1-181 limits assumed) above
Text: Response: We agree with Reviewer 2 and have included a brief discussion on the potential effects of chronic Rheb inhibition in the discussion section (p. 25).
“As with any new pharmacological agent, the anticipated side effects will need to be considered. The only data available from the literature that may help in understanding the potential side-effects of reducing Rheb activity come from genetic knock-out studies which, because of their inherent impacts on developmental and other effects, cannot be directly related to what might be expected following pharmacological inhibition. Thus, careful development of a novel Rheb inhibitor would have to take into account the potential organ systems that may be impacted, such as neurological63, 64 and […]
Below is a list of concerns that would need to be addressed in order for this work to be considered for publication in Nature Communications.
1. The authors state that it is “conceivable that portions of NR1 positioned outside the Rheb binding pocket sterically block the interaction with mTORC1. Given that the authors have access to recombinant Rheb and mTOR protein, it is unclear why there is no direct evidence that NR1 can inhibit their interaction. Alternatively, the effects of NR1 on Rheb-mTOR interactions could be shown in cells through co-IP. […]

## CN(C)C(=O)c1ccc(Cn2c(C(=O)O)cc3c(Br)cc(Sc4ccc(Cl)c(Cl)c4)cc32)cc1 [NR1, 4-bromo-6-(3,4-dichlorophenylthio)-1-(4-(dimethylcarbamoyl)benzyl)-1H-indole-2-carboxylic acid]
[1]
  IC50: 2100 nM
[2]
  inhibitory activity in HotSpot: no inhibitory activity
[3]
  mTORC1 signaling in TRI102 cells: inhibits mTORC1 signaling
[4]; PC3, replete, 24 h, NR1 30 µM, rapamycin 100 nM
  S473pAKT after 24 h treatment: no inhibition
[4]; PC3, time points 2 h through 24 h
  pAkt over time course: activates pAkt
[5]
  aqueous solubility: low aqueous solubility
[6]
  Rheb-mTOR interaction: does not modulate
